From patent US8957074B2 (Novartis AG, priority 2010, dated 2015)
Like-named read-outs stand apart in the source and are kept apart here.

Experiments:
[1] = molecular target: CDK4/cyclin D1 (Homo sapiens (Human), UniProt P11802); assay: CDK4/cyclin D1 enzymatic activity assay (TR-FRET, phosphorylation of pRb at Ser780); assay type: biochemical
Method: CDK4/Cyclin D1 Enzymatic Activity Assay
An assay for monitoring CDK4/cyclin D1-catalyzed phosphorylation of pRb at the Ser780 site was performed using TR-FRET in a 384-well format, and was used for IC50 determination and kinetic analysis. […] 3 μM ATP was added last to initiate the reaction. The reaction was quenched with 10 μL of 240 mM EDTA-Na (pH 8.0) after 60 min incubation at 22° C.
Human CDK4/cyclin D1 was expressed in Sf21 cells via baculovirus infection.

[2] = tested on: phosphorylation of pRb at the Ser780 site in JeKo-1 mantle cell lymphoma cells; assay: CDK4 cellular assay: ELISA of pRb phosphorylation at Ser780 in JeKo-1 cells; assay type: cell-based; details: Homo sapiens
Text: Cell-based assay measuring phosphorylation levels of pRb at the Ser780 site using an enzyme-linked immunosorbent assay (ELISA) method (Table 6). JeKo-1, a mantle-cell lymphoma cell line, was selected for use in this assay due to its known translocation and subsequent overexpression of cyclin D1. [Ref: Amin, H. M.; McDonnell, T. J.; Medeiros, L. J.; Rassidakis, G. Z.; Leventaki, V.; O'Connor, S. L.; Keating, M. J.; Lai, R. Characterization of 4 mantle cell lymphoma cell lines—Establishment of an in vitro study model. Arch. Pathol. Lab.
Cells were allowed to adhere overnight. […] 10 μL of the dilution were then transferred to the cell culture plate, resulting in a final concentration range of 10 μM to 2 nM. The incubation was carried out at 37° C. with 5% CO2. All compounds were tested in triplicates at each concentration. […] The plates were placed at 4° C. with vigorous shaking for 5 min to lyse the cells. The resulting lysates contained approximately 1 μg/μL of protein.
Plates were incubated overnight at 4° C. with rocking. […] After shaking for 10 minutes, the Superblock solution was replaced with fresh Superblock and plates were incubated on a shaker for an additional 50 min. After blocking, 30 μL of JeKo-1 cell lysate, containing approximately 10 μg total protein, were added to wells in triplicate. […] For all incubation steps, plates were covered with Uniseal plate sealers. […] Next, 50 μL of a 1:2500 dilution of donkey-anti-rabbit HRP (Promega catalog no. W401B) in PBS/10% Superblock were added, and plates were incubated for 30 min at room temperature on a shaker. Plates were again washed as described above. […] After incubation, 50 μL 2 M sulfuric acid were added to plates to top the reaction, and absorbance was determined on a SpectraMax (Molecular Devices, Sunnydale, Calif.) within 15 minutes at 450 nm. All washes were performed using a Bio-Tek plate washer.
The Total Rb ELISA kit (Invitrogen catalog no. KH00011) was used to determine the levels of total pRb. This kit uses wells precoated with a proprietary total pRb antibody for capture. All reagents listed, with the exception of cell lysate, were included in the kit. The nature of the antibodies used for capture and detection was labeled as proprietary and not disclosed. 10 μg of cell lysate was loaded into the wells and volume adjusted to 50 μL with standard dilution buffer. Plates were sealed with film included in the kit and incubated for 2 h at room temperature on a shaker. Plates are then manually washed three times with 250 μL wash buffer. 50 μL of proprietary primary antibody (pre-conjugated to biotin) was added to wells and incubated for 1 h at room temperature on a shaker. Then plates were again washed as noted above. The secondary antibody (HRP pre-conjugated to Streptavidin) was diluted 1:100 in Streptavidin-HRP diluent buffer and 50 μL was added to each well. Plates were then incubated for 30 min. Afterwards, plates were washed four times with buffer as outlined above. Finally, 50 μL stabilized Chromogen was added per well and plates were incubated for 15 min, at which point 50 μL of stop solution was added. Plates were then read on a Spectramax at 450 nm.
The total pRb levels were then used to adjust the p-pRb % inhibition values to account for any loss of signal due to the absence of the pRb protein itself, and the IC50 values obtained from the adjusted % inhibitions represent normalized cellular p-pRb IC50.

[3] = molecular target: CDK1/cyclin B (Homo sapiens (Human), UniProt P06493); assay: CDK1/cyclin B enzymatic activity assay (IMAP-FP); assay type: biochemical; details: 100 nM Tamra Histone-H1 peptide, 20 μM ATP, 120 min at room temperature, read-out: Biochemical CDK1 enzyme IC50
Text: CDK1/Cyclin B Enzymatic Activity Assay
A 384-well microtiter IMAP-FP™ (Molecular Devices Trade Mark Technology) endpoint assay was used for CDK1/cyclin B kinase activity measurements. The same assay was used for IC50 determination of small molecule inhibitors.

[4] = 0.3 nM CDK4/cyclin D1, 150 nM biotin-pRb (773-924), 3 μM ATP, 60 min at 22° C., read-out: Biochemical CDK4 enzyme IC50
[5] = JeKo-1 cells, p-pRb % inhibition adjusted with total pRb levels, read-out: Normalized cellular ppRb inhibition IC50
[6] = JeKo-1 cells, p-pRb Ser780 ELISA, non-normalized, read-out: Cellular ppRb inhibition IC50
[7] = JeKo-1, JeKo-1 cells, p-pRb % inhibition adjusted with total pRb levels, read-out: Normalized cellular ppRb inhibition IC50
[8] = JeKo-1, JeKo-1 cells, p-pRb Ser780 ELISA, non-normalized, read-out: Cellular ppRb inhibition IC50

Sequence of CDK4/cyclin D1 (P11802 whole entry): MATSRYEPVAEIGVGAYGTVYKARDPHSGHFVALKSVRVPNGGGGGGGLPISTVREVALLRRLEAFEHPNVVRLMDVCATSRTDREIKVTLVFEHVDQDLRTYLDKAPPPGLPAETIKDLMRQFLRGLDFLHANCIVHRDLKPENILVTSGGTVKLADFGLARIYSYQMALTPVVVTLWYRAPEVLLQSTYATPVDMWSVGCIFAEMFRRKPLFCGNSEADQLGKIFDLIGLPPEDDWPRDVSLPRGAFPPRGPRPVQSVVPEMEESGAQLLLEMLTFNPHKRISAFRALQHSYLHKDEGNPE
Sequence of CDK4/cyclin D1 (P24385 whole entry partner): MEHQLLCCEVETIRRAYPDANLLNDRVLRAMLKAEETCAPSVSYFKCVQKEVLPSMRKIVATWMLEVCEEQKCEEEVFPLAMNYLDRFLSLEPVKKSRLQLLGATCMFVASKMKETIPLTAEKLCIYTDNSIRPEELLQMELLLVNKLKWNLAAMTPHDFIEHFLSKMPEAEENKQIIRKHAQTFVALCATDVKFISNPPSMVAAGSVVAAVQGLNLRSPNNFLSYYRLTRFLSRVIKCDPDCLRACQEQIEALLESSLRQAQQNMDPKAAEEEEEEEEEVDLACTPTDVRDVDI
Sequence of CDK1/cyclin B (P06493 whole entry, species assumed): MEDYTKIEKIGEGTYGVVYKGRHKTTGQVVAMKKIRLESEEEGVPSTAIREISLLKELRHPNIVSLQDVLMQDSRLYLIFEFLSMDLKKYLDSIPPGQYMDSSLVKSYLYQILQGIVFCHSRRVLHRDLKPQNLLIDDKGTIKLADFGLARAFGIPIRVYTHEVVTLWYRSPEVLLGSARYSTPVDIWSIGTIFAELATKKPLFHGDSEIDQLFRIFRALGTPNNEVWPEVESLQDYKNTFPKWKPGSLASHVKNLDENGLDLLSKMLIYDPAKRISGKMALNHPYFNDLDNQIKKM
Sequence of CDK1/cyclin B (P14635 whole entry partner, species assumed): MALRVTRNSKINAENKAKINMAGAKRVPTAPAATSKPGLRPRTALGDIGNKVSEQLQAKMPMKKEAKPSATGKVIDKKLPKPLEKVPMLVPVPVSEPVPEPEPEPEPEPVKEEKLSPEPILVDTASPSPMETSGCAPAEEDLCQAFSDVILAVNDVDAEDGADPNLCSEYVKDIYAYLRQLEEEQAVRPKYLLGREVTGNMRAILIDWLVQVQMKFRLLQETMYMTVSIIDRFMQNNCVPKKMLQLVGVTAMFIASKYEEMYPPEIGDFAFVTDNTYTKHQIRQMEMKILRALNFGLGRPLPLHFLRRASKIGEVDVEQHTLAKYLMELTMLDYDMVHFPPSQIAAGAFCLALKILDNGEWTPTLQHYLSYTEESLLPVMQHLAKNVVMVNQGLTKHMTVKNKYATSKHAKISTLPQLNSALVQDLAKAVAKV

SMILES	IC50 [1, 4] [nM]	IC50 [2, 5] [nM]	IC50 [2, 6] [nM]	IC50 ([3]; […] CDK1/cyclin B) [nM]	IC50 [2, 7] [nM]	IC50 [2, 8] [nM]	IC50 [1] [nM]	IC50 ([3]; 0.25 nM CDK1/cyclin B) [nM]
CC(C)N1C2CCC1CN(C(=O)c1ccc(Nc3ncc4cc(C(=O)N(C)C)n(C5CCCC5)c4n3)nc1)C2 [Example 29, 7-cyclopentyl-2-(5-(8-isopropyl-3,8-diazabicyclo[3.2.1]octane-3-carbonyl)pyridin-2-ylamino)-N,N-dimethyl-7H-pyrrolo[2,3-d]pyrimidine-6-carboxamide]	14 to 17	20 to 48	24 to 34	> 15000	–	–	–	–
CNC(=O)c1cc2cnc(Nc3ccc(C(=O)N4CC5CCC(C4)N5)cn3)nc2n1C1CCCC1 [Example 23, 7-Cyclopentyl-2-[5-(3,8-diaza-bicyclo[3.2.1]octane-3-carbonyl)-pyridin-2-ylamino]-7H-pyrrolo[2,3-d]pyrimidine-6-carboxylic acid methylamide]	1630	–	–	> 15000	6770	6770	–	–
CN(C)C(=O)c1cc2cnc(Nc3ccc(C(=O)N4C[C@@H]5C[C@H]4C[C@@H]5O)cn3)nc2n1C1CCCC1 [Example 30, 7-cyclopentyl-2-(5-((1S,4S,5S)-5-hydroxy-2-azabicyclo[2.2.1]heptane-2-carbonyl)pyridin-2-ylamino)-N,N-dimethyl-7H-pyrrolo[2,3-d]pyrimidine-6-carboxamide]	88 to 114	344 to 582	422 to 542	> 15000	–	–	–	–
CN(C)C(=O)c1cc2cnc(Nc3ccc(N4CC5CCC(CC4=O)N5)nn3)nc2n1C1CCCC1 (stereo not shown) [Example 79, 7-Cyclopentyl-2-[6-(4-oxo-3,9-diaza-bicyclo[4.2.1]non-3-yl)pyridazin-3-ylamino]-7H-pyrrolo[2,3-d]pyrimidine-6-carboxylic acid dimethylamide]	–	–	–	–	117	30	42	> 15000
CN(C)C(=O)c1cc2cnc(Nc3ccc(N4C[C@@H]5CNC[C@@H]5C4=O)cn3)nc2n1C1CCCC1 [Example 85, 7-cyclopentyl-N,N-dimethyl-2-(5-((3aS,6aR)-1-oxohexahydropyrrolo[3,4-c]pyrrol-2(1H)-yl)pyridin-2-ylamino)-7H-pyrrolo[2,3-d]pyrimidine-6-carboxamide]	5 to 7	–	–	–	9 to 21	5 to 17	–	8980 to 11200
CN(C)C(=O)c1cc2cnc(Nc3ccc(C(=O)N4CC5CCC(C4)N5C(=O)C4CCCN4)cn3)nc2n1C1CCCC1 (stereo not shown) [Example 61, 7-Cyclopentyl-2-{5-[8-(pyrrolidine-2-carbonyl)-3,8-diaza-bicyclo[3.2.1]octane-3-carbonyl]-pyridin-2-ylamino}-7H-pyrrolo[2,3-d]pyrimidine-6-carboxylic acid dimethylamide]	20	53	21	> 15000	–	–	–	–
CN1CCCC2(CC1)CN(c1ccc(Nc3ncc4cc(C(=O)N(C)C)n(C5CCCC5)c4n3)nc1)C(=O)O2 (stereo not shown) [Example 104, 7-Cyclopentyl-2-[5-(8-methyl-2-oxo-1-oxa-3,8-diaza-spiro[4.6]undec-3-yl)-pyridin-2-ylamino]-7H-pyrrolo[2,3-d]pyrimidine-6-carboxylic acid dimethylamide]	20	64	29	> 15000	–	–	–	–
CN(C)C(=O)c1cc2cnc(Nc3ccc(C(=O)N4CC[C@H]5CC[C@@H](C4)N5)cn3)nc2n1C1CCCC1 [Example 71, 7-Cyclopentyl-2-[5-((1S,6R)-3,9-diaza-bicyclo[4.2.1]nonane-3-carbonyl)-pyridin-2-ylamino]-7H-pyrrolo[2,3-d]pyrimidine-6-carboxylic acid dimethylamide]	5 to 6	56	31	–	–	–	–	–
CN(C)C(=O)c1cc2cnc(Nc3ccc(C(=O)N4CC5CCC(C4)N5)cn3)nc2n1C1CCC1 [Example 55, 7-Cyclobutyl-2-[5-(3,8-diaza-bicyclo[3.2.1]octane-3-carbonyl)-pyridin-2-ylamino]-7H-pyrrolo[2,3-d]pyrimidine-6-carboxylic acid dimethylamide]	–	35 to 164	31 to 112	–	–	–	–	–
CN(C)C(=O)c1cc2cnc(Nc3ccc(N4CCC5(CCCN5)C4=O)cn3)nc2n1C1CCCC1 (stereo not shown) [Example 113, 7-Cyclopentyl-2-[5-(6-oxo-1,7-diaza-spiro[4,4]non-7-yl)-pyridin-2-ylamino]-7H-pyrrolo[2,3-d]pyrimidin-6-carboxylic acid dimethylamide]	17 to 21	–	–	–	204 to 245	177 to 205	–	–
CN(C)C(=O)c1cc2cnc(Nc3ccc(C(=O)N4CC[C@@H]5CC[C@H](C4)N5)cn3)nc2n1C1CCCC1 [Example 72, 7-cyclopentyl-2-[5-((1R,6S)-3,9-diaza-bicyclo[4.2.1]nonane-3-carbonyl)-pyridin-2-ylamino]-7H-pyrrolo[2,3-d]pyrimidine-6-carboxylic acid dimethylamide]	13	112	48	–	–	–	–	–
CN(C)C(=O)c1cc2cnc(Nc3ccc(C(=O)N4CC5CCC(C4)N5)cn3)nc2n1C1CCN(C2CC2)CC1 [Example 56, 7-(1-cyclopropyl-piperidin-4-yl)-2-[5-(3,8-diaza-bicyclo[3.2.1]octane-3-carbonyl)-pyridin-2-ylamino]-7H-pyrrolo[2,3-d]pyrimidine-6-carboxylic acid dimethylamide]	–	–	–	–	470	395	–	–
CN(C)C(=O)c1cc2cnc(Nc3ccc(N4CC5CCC(CC4=O)N5)cn3)nc2n1-c1ccc(C(C)(C)C#N)cc1 (stereo not shown) [Example 127, 7-(4-(2-cyanopropan-2-yl)phenyl)-N,N-dimethyl-2-(5-(4-oxo-3,9-diazabicyclo[4.2.1]nonan-3-yl)pyridin-2-ylamino)-7H-pyrrolo[2,3-d]pyrimidine-6-carboxamide]	–	247 to 1520	119 to 917	–	–	–	–	–
CN(C)C(=O)c1cc2cnc(Nc3ccc(C(=O)N4CCC5CCC(C4)N5)cn3)nc2n1C1CCCC1 (racemic) [Example 69, 7-Cyclopentyl-2-[5-(3,9-diaza-bicyclo[4.2.1]nonane-3-carbonyl)-pyridin-2-ylamino]-7H-pyrrolo[2,3-d]pyrimidine-6-carboxylic acid dimethylamide]	5 to 18	48	24	–	–	–	–	–
CN(C)C(=O)c1cc2cnc(Nc3ccc(C(=O)N4CC5CCCC(C4)N5)cn3)nc2n1C1CCCC1 [Example 52, 7-Cyclopentyl-2-[5-(3,9-diaza-bicyclo[3.3.1]nonane-3-carbonyl)-pyridin-2-ylamino]-7H-pyrrolo[2,3-d]pyrimidine-6-carboxylic acid dimethylamide]	27	45 to 53	21 to 47	–	–	–	–	–
